Legend:
ACC1 = target: T1, ACC1 (Homo sapiens, UniProt Q13085); assay: In vitro inhibition of ACC1 activity, ADP-Glo Kinase Analysis; type: biochemical; details: 1 nM ACC1, 10 μM acetyl-CoA, 20 μM ATP
T1 construct: purchased BPS bioscience
Excerpt: ADP-Glo™ Kinase Analysis Kit (Promega) is used for the in vitro analysis of the inhibitory effect of the present compound on ACC1 or ACC2. ADP-Glo™ Kinase Analysis is a kinase detection analysis of luminescence method. ADP is produced in the process of catalyzing the substrate by ACC. ADP is converted into ATP which is then converted into light by Ultra-Glo™ luciferase. ADP is quantified by detecting the light signal, thus the enzyme activity can be measured by quantification of the ADP amount produced during the enzyme reaction. The analysis is carried out in two steps: in the first step, after the kinase reaction, a portion of ADP-Glo™ reagent equal in volume to the kinase reaction system is added to terminate the reaction and consume the remaining ATP; in the second step, a kinase detection reagent is added, which not only converts ADP into ATP, but also uses a coupled luciferase/luciferin reaction to detect newly synthesized ATP.
a. 10 mM compound stock solution (the present compound was dissolved in 100% DMSO to prepare the 10 mM stock solution) was diluted 50-fold to 200 μM with 100% DMSO, and then diluted in equal proportions (1:3) in a 96-well dilution plate (249944, Nunc). The gradient concentrations of the compound were 200 μM, 66.67 μM, 22.22 μM, 7.41 μM, 2.47 μM, 0.823 μM, 0.274 μM, 0.0914 μM, 0.0305 μM, 0.0102 μM, 0.00339 μM and 0.00113 μM.
b. 4.5 μL ACC1 working solution (BPS bioscience) (2.22 nM) was added to each well of a 384-well test plate (6007290, Perkin Elmer).
c. 0.5 μL of the serially diluted compound (prepared in step a) was added to each well of the 384-well test plate, which was centrifuged at 1000 rpm for 1 min and then incubated at room temperature for 15 min. The reaction system with compound GS-0976 at a final concentration of 0.1 μM was used as positive control; the reaction system with no compound but DMSO at a final concentration of 5% was used as negative control.
d. In the 384-well test plate (prepared in step c), 5 μL of the substrate working solution was added to each well to start the enzymatic reaction. The plate was centrifuged at 1000 rpm for 1 min and then incubated at room temperature for 30 min. The final concentration of each component in the ACC1 reaction system: 1 nM ACC1, 10 μM acetyl-CoA, 30 mM NaHCO3, and 20 μM ATP. The final concentration of each component in the ACC2 reaction system: 1.1 nM ACC2, 20 μM acetyl-CoA, 20 mM NaHCO3, and 15 μM ATP. Final concentrations of test compounds: 10 μM, 3.33 μM, 1.11 μM, 0.37 μM, 0.123 μM, 0.0411 μM, 0.0137 μM, 0.00457 μM, 0.00152 μM, 0.00051 μM, 0.00017 μM and 0.000056 μM. The final concentration of DMSO was 5% (v/v).
e. 10 μL of ADP-Glo reagent was added to each well of the 384-well test plate (prepared in step d), which was centrifuged at 1000 rpm for 1 min and then incubated at room temperature for 40 min.
f. 20 μL of kinase detection reagent was added to each well of the 384-well test plate (prepared in step e), which was centrifuged at 1000 rpm for 1 min and then incubated at room temperature for 40 min.
g. The chemiluminescence signal was detected with Perkin Elmer EnVision 2104.
ACC1 working solution and substrate working solution were both prepared with 1× kinase reaction buffer. The buffer was consisting of 50 mM HEPES buffer, 2 mM magnesium chloride, 0.01% BRIJ-35, 2 mM potassium citrate, 50 μg/mL BSA and 2 mM DTT.
The average value of the positive and negative control well and the standard deviation were calculated. The inhibition percentage was calculated according to the following formula: 100×[1−(compound−average value of positive control)/(average value of negative control-average value of positive control)].
IC50 of the compound was obtained using GraphPad Prism 6 software according to the following nonlinear fitting formula:
Y=Bottom+(Top−Bottom)/(1+10^((Log IC50−X)×Hillslope)), […]

[1] = system: patients with non-alcoholic steatohepatitis (NASH); details: cited from earlier work
patients = details: 10 patients, 20 mg orally once a day for 12 weeks; cited from earlier work

Compound	IC50 (ACC1) [nM]	other results
COC(=O)N1CCC2(CC1)C(=O)c1c(sc(-c3ncco3)c1C)N(C[C@H](OC1CCOCC1)c1ccccc1OC)C2=O [Compound 28, methyl (R)-7′-(2-(2-methoxyphenyl)-2-((tetrahydro-2H-pyran-4-yl)oxy)ethyl)-3′-methyl-2′-(oxazol-2-yl)-4′,6′-dioxo-6′,7′-dihydro-4′H-spiro[piperidine-4,5′-thieno[2,3-d]pyridine]-1-carboxylate]	< 10	
COc1ccccc1[C@H](CN1C(=O)C2(CCN(C(=O)NCC(=O)O)CC2)C(=O)c2c1sc(-c1ncco1)c2C)OC1CCOCC1 [Compound 29, (R)-(7′-(2-(2-methoxyphenyl)-2-((tetrahydro-2H-pyran-4-yl)oxy)ethyl)-3′-methyl-2′-(oxazol-2-yl)-4′,6′-dioxo-6′,7′-dihydro-4′H-spiro[piperidine-4,5′-thieno[2,3-d]pyridine]-1-carbonyl)glycine]	< 10	
COc1ccccc1[C@H](CN1C(=O)C2(CCN(C(=O)NCCO)CC2)C(=O)c2c1sc(-c1ncco1)c2C)OC1CCOCC1 [Compound 33]	< 10	
COc1ccccc1[C@H](Cn1c(=O)n(C(C)(C)C(=O)O)c(=O)c2c(C)c(-c3ncco3)sc21)OC1CCOCC1 [GS-0976]		relative decrease of liver fat content ([1]; 12th week, MRI-PDFF): 43%; median cirrhosis, non-invasive marker of fibrosis, by magnetic resonance elastography (MRE) ([1]; 12th week, baseline 3.4 kPa, p=0.049): 3.1 kPa; liver fat content measured by MRI-PDFF ([1]; 12th week, baseline 15.7%, p=0.006): 9.0%; decrease of the amount of denovo fat synthesis from the baseline level, median ([1]; after 12 weeks): 29%; tolerability ([1]; most common adverse events nausea, abdominal pain and diarrhea): well tolerated; liver fat content and non-invasive fibrosis markers (patients): statistically significant improvements

Further lines, with some results ahead:

IC50 (ACC1) [nM]	Compound	other results
< 10	COc1ccccc1[C@H](CN1C(=O)C2(CCN(C(=O)C(=O)O)CC2)C(=O)c2c1sc(-c1ncco1)c2C)OC1CCOCC1 [Compound 27, (R)-2-(7′-(2-(2-methoxyphenyl)-2-((tetrahydro-2H-pyran-4-yl)oxy)ethyl)-3′-methyl-2′-(oxazol-2-yl)-4′,6′-dioxo-6′,7′-dihydro-4′H-spiro[piperidine-4,5′-thieno[2,3-d]pyridin]-1-yl)-2-oxoacetic Acid]	
< 10	COc1ccccc1[C@H](CN1C(=O)C2(CCN(S(=O)(=O)O)CC2)C(=O)c2c1sc(-c1ncco1)c2C)OC1CCOCC1 [Compound 30]	
< 10	COc1ccccc1[C@H](CN1C(=O)C2(CCN(C(N)=O)CC2)C(=O)c2c1sc(-c1ncco1)c2C)OC1CCOCC1 [Compound 31]	
< 10	CNC(=O)N1CCC2(CC1)C(=O)c1c(sc(-c3ncco3)c1C)N(C[C@H](OC1CCOCC1)c1ccccc1OC)C2=O [Compound 32]	

— US20220041616A1, “SPIRO COMPOUND AND MEDICAL USES THEREOF” (The National Institutes of Pharmaceutical R&D Co., Ltd., priority 2018, published 2022)
